Several values for one entry are separate records, joined by “and”; a condition that tells them apart may be missing. Equal entries are not always repeated. Bounds are passed on as bounds.

One data set deals with ICAM-1. As to the kind of experiment: TNFα-induced adhesion molecule expression, Western analysis. Format: cell-based. Conditions: human endothelial cells, TNFα 100 ng/mL 6 hours, 25 μM compound. Here is the method:
(§1) Like endothelial cells in the body, HUVECs will proliferate in response to several growth factors, and will respond to inflammatory cytokines such as TNFα and IL-1β. Western analyses were conducted with human endothelial cells to evaluate the effects of the SK inhibitors on signaling proteins known to be regulated by TNFα. In these experiments, the cells were serum-starved for 24 hours and then exposed to TNFα (100 ng/mL) for 6 hours. Cell lysates from treated cells were assayed for the adhesion molecules ICAM-1 and VCAM-1. TNFα caused marked increases in the expression levels of adhesion proteins involved in leukocyte recruitment, including ICAM-1 and VCAM-1.

In a further data set the test system is VCAM-1. The description is as above. Format: cell-based. Conditions: human endothelial cells, TNFα 100 ng/mL 6 hours, 25 μM compound. Here is the method:
as §1

For data set [1], the system named is female DBA/1 mice, collagen-induced arthritis. As to the kind of experiment: Collagen-Induced Arthritis (CIA) model. The format is in vivo, mouse. The note with it: Day 12. Here is the method:
The anti-arthritis activities of the SK inhibitor Compound 62 were assessed in the Collagen-Induced Arthritis (CIA) model. Female DBA/1 mice were injected subcutaneously in the tail with chicken immunization-grade type II collagen (Chondrex) emulsified in complete Freund's adjuvant (Sigma) at 2 mg/mL. Three weeks later, the mice received a collagen booster in incomplete Freund's adjuvant and were monitored daily thereafter for arthritic symptoms. […] The severity of disease in each animal was quantified by measurement of the hind paw volume with digital calipers. […] Differences among treatment groups were tested using ANOVA.

In a further data set the test system is recombinant human SK. The data set can be described thus: Inhibition of recombinant human SK, LC/MS/MS assay. Format: biochemical. Conditions: 6 μg/ml compound. In short, it runs like this:
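Enzyme incubated with unlabeled sphingosine and ATP (1 mM, as in the radiometric format) for 30 min, then stopped and extracted with acetonitrile. S1P quantified by C8 reverse-phase HPLC–MS/MS against C17 sphingosine and C17 S1P internal standards using calibration curves.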

A further data set in a line: physchem. Conditions: aqueous with cosolvent or surfactant or cyclodextrin.
In data set [2] the test system is VEGF-induced vascular leakage. The data set can be described thus: VEGF-induced vascular permeability (Miles assay). The format is in vivo, mouse. Conditions: 75 mg/kg intraperitoneal or 100 mg/kg oral gavage, nude mice. As to the method:
The effects of VEGF on vascular leakage in vivo were measured as described by Miles and Miles (Miles et al., 1952, J Physiol 118: 228). Groups of female athymic nude mice (approximately 20 g) were given intraperitoneal injections of DMSO alone or Compound 62 (75 mg/kg) in a volume of 50 microliters. In some experiments, Compound 62 was administered by oral gavage at a dose of 100 mg/kg. After 30 minutes, 100 μL of 0.5% Evan's blue dye in PBS was administered by tail vein injection. Thirty minutes later, mice received the first of 3 sequential (every 30 minutes) intradermal injections of VEGF (400 ng in 20 μL of PBS per injection) on the left hind flank. As a control, similar injections of PBS were administered on the right hind flank. Thirty minutes after the last injection, leakage of the dye from the vasculature into the skin was assessed by measuring the length and width of the spots of blue-colored skin using calipers.

A further data set deals with DU145 (prostate). The data set can be described thus: Human tumor cell line panel, sulforhodamine B. The format is cell-based. The note with it: DU-145, 48 hours, mean ± sd.
The next data set has as its system 1025LU (melanoma). The data set can be described thus: Human tumor cell line panel, sulforhodamine B. The format is cell-based. The note with it: 48 hours, mean ± sd.
Data set [3] relates to male Lewis rats, adjuvant-induced arthritis. The data set can be described thus: Adjuvant-induced arthritis model. The format is in vivo, rat. As to the method:
Adjuvant-induced arthritis is another widely used assay that recapitulates many features of human rheumatoid arthritis, and so is useful in the evaluation of new drug candidates. Age- and weight-matched male Lewis rats (150-170 g) were injected subcutaneously in the tail with 1 mg of Mycobacterium butyricum (Difco, killed dried) suspended in 0.1 ml of light mineral oil. Symptoms of immune reactivity were present after 2 weeks. Responsive rats were randomized into treatment groups, and received oral daily doses (1 ml) of: solvent alone (0.375% Tween-80); 100 mg/kg Compound 62; 35 mg/kg Compound 62; or 5 mg/kg Compound 62, or intraperitoneal injections of indomethacin (5 mg/kg) every other day as a positive control. The severity of disease in each animal was quantified by measurement of the hind paw thickness.

The next data set deals with Caco-2 (colon). As to the kind of experiment: Human tumor cell line panel, sulforhodamine B. Format: cell-based. The note with it: 48 hours, mean ± sd.
The test system of data set [4] is Cox-2 activity in IEC6 rat intestinal epithelial cells. As to the kind of experiment: TNFα-induced PGE2 production, ELISA. Format: cell-based. Conditions: 100 ng of TNFα/mL 18 hours. Here is the method:
(§2) FIG. 6. Inhibition of TNFα-induced Cox-2 activity by Compound 62. Rat IEC6 cells (Panel A) or human endothelial cells (Panel B) were incubated for 18 hours with dimethylsulfoxide (DMSO) as a solvent control, or 100 ng of TNFα/mL in the presence of DMSO or […] of Compound 62. Levels of PGE2 secreted into the medium were quantified by ELISA. Values represent the mean±sd for triplicate samples in a typical experiment.
(§3) To determine the effects of the SK inhibitors on Cox-2 activity, an ELISA assay was used to measure PGE2 production by IEC6 rat intestinal epithelial cells and human endothelial cells treated with TNFα.

Data set [5] has as its system Cox-2 activity in human endothelial cells. As to the kind of experiment: TNFα-induced PGE2 production, ELISA. Format: cell-based. Conditions: 100 ng of TNFα/mL 18 hours. Here is the method: as §2, §3
The mark [6] stands for this setting: 100 mg/kg orally each day 6 days per week.

Turning to `O=C(NCc1ccncc1)C12CC3CC(C1)CC(c1ccc(Cl)cc1)(C3)C2` [Compound 62, 3-(4-Chloro-phenyl)-adamantane-1-carboxylic acid (pyridin-4-ylmethyl)-amide], the “TNFα induction of ICAM-1” value in the data set with ICAM-1 is “completely abrogated”. The “TNFα induction of VCAM-1” value in the data set with VCAM-1 is “completely abrogated”. Besides, the “reduction in clinical score vs vehicle” value in [1] (setting [6]) was determined as 67%. The “reduction in the increase in hind paw thickness vs vehicle” value in data set [1] (setting [6]) is given as 90%. In addition, the “histologic damage of tibiotarsal joints” value in data set [1] (100 mg/kg orally) is “significantly reduced”. Moreover, the “Recombinant SK (% inhibition)” value in the data set on recombinant human SK was determined as 13%. The solubility in the data set “physchem” is ≥ 15000 µg/mL and 30000 µM to 40000 µM. For the same compound, the “vascular leakage in response to VEGF” value in data set [2] was “markedly reduced”. Further, the IC50 with DU145 (prostate) was determined as 21.9 ± 1.5 µM; in the data set with 1025LU (melanoma), 33.7 ± 2.7 µM; in the data set on Caco-2 (colon) it was 11.8 ± 5.6 µM. For the same compound, the “reduction in the arthritic response (hind paw thickness)” value came out at 13% in [3] (5 mg/kg oral daily), 42% in data set [3] (35 mg/kg oral daily) and 76% in data set [3] (100 mg/kg oral daily). The “induction of Cox-2 activity by TNFα (PGE2 production)” value in data set [4] and in [5] was “strongly suppressed” throughout.

The values are drawn from US8557800B2, “Sphingosine kinase inhibitors” (Apogee Biotechnology Corporation, priority 2005, dated 2013).
